Reference: patent US11098040B2, “Compounds and methods of use” (Ferro Therapeutics, Inc., priority 2018, dated 2021)

Experiments:
[1] = system: KP4; experiment: Cell viability assay (CellTiter Glo), pancreatic ductal adenocarcinoma KP4; format: cell-based, human; conditions: Homo sapiens, KP-4, 96 h, pancreatic cancer cell line KP4, 96 hours, CellTiter Glo; read-out: IC50 μM KP4
Procedure: (§1) Cell viability assay was performed to assess the potency of the compounds in human cancer cell lines KP4 (pancreatic ductal adenocarcinoma), MiaPaCa-2 (pancreatic carcinoma), AsPC-1 (pancreatic adenocarcinoma, ascites), 143B (osteosarcoma), and SJSA-1 (osteosarcoma). Selected compounds were also assayed in a human breast epithelial cell line MCF-10A, a nontumorigenic cell line as a control to assess differential activity. Cells at a density of 500-5,000 cells/well were seeded in 96-well plates and incubated at 37° C. overnight. A series of 9 different concentrations of compound stocks (500×) were created by 3-fold serial dilution in DMSO. These compounds were further diluted in culture media and then added to cells so that the final DMSO concentration was equal to 0.25% or less. After 96 hours of incubation, 50 μL of CellTiter Glo reagent (Promega) was added to each well and luminescence was measured after 10 minutes using EnVision (PerkinElmer). Compounds titrated from top concentration of up to 30 μM. The select compounds were tested initially from 30 μM as the top concentration in duplicates (range of 4.6 nM-30 μM). […] Luminescence from cells treated with DMSO alone was set as Max and % of inhibition was calculated as follows: Inhibition %=(Max-Sample value)/Max*100. Data was analyzed using XL-fit software (ID Business Solutions Ltd.). IC50, relative IC50, or % of top inhibition was calculated.
as §1, with “in” for “in human”, “line” for “lines”, “adenocarcinoma).” for “adenocarcinoma), MiaPaCa-2 (pancreatic carcinoma), AsPC-1 (pancreatic adenocarcinoma, ascites), 143B (osteosarcoma), and SJSA-1 (osteosarcoma). Selected compounds were also assayed in a human breast epithelial cell line MCF-10A, a nontumorigenic cell line as a control to assess differential activity.”, “1,000-10,000” for “500-5,000”, “All” for “Compounds titrated from top concentration of up to 30 μM. The select”
(§2) The results of the assay on stability in blood and IC50 values for pancreatic cancer cell line KP4 are given below in Table 24.

[2] = Whole blood stability, mouse; format: in vitro ADME
Text: as §2

[3] = Whole blood stability, human; format: in vitro ADME
Text: as §2

| SMILES | IC50 [1] | Whole Blood Stability % Remaining at 37° C. Mouse ([2]; 0 min) | Whole Blood Stability % Remaining at 37° C. Mouse ([2]; 30 min) | Whole Blood Stability % Remaining at 37° C. Mouse ([2]; 60 min) | Whole Blood Stability % Remaining at 37° C. Human ([3]; 0 min) | Whole Blood Stability % Remaining at 37° C. Human ([3]; 30 min) | Whole Blood Stability % Remaining at 37° C. Human ([3]; 60 min) |
| --- | --- | --- | --- | --- | --- | --- | --- |
| CC(C)(C)OC(=O)c1ccc([C@H]2c3[nH]c4ccccc4c3C[C@H](C(=O)OC(C)(C)C)N2C(=O)CCl)cc1 [Compound 19] | < 0.01 µM | 100.0% | 44.5% | 21.2% | 100.0% | 44.4% | 35.6% |
| CC(C)OC(=O)[C@H]1Cc2c([nH]c3ccccc23)[C@H](c2ccc(C(=O)OC(C)(C)C)cc2)N1C(=O)CCl [Compound 20] | < 0.01 µM | 100.0% | 39.9% | 19.1% | 100.0% | 50.7% | 41.6% |
| CNS(=O)(=O)c1ccc([C@H]2c3[nH]c4ccccc4c3C[C@H](C(=O)OC)N2C(=O)CCl)cc1 [Compound 22] | < 0.01 µM | 100.0% | 47.4% | 27.6% | 100.0% | 58.8% | 24.9% |
| COC(=O)[C@H]1Cc2c([nH]c3ccccc23)[C@@H](c2ccc(S(=O)(=O)N(C)C)cc2)N1C(=O)CCl [Compound 23a] | > 1 µM | 100.0% | 83.8% | 78.6% | 100.0% | 83.2% | 72.7% |
| COC(=O)[C@H]1Cc2c([nH]c3ccccc23)[C@H](c2ccc(S(=O)(=O)N[C@]34C[C@H]5C[C@H](C[C@H](C5)C3)C4)cc2)N1C(=O)CCl [Compound 24] | < 0.01 µM | 100.0% | 62.0% | 37.0% | 100.0% | 61.7% | 50.2% |
| COC(=O)[C@H]1Cc2c([nH]c3ccccc23)[C@H](c2ccc(C(=O)OC(C)(C)C)cc2)N1C(=O)/C=C/CCl [Compound 25] | 0.1 to 0.5 µM | 100.0% | 46.2% | 24.4% | 100.0% | 55.0% | 51.9% |
| COC(=O)[C@H]1Cc2c([nH]c3ccccc23)[C@H](c2ccc(C(=O)N[C@]34CC5C[C@H](C[C@H](C5)C3)C4)cc2)N1C(=O)CCl [Compound 28, Methyl-(1S,3R)-1-(4-(((3R,5R,7R)-adamantan-1-yl)carbamoyl)phenyl)-2-(2-chloroacetyl)-2,3,4,9-tetrahydro-1H-pyrido[3,4-b]indole-3-carboxylate] | < 0.01 µM | 100.0% | 78.3% | 68.9% | 100.0% | 73.4% | 51.6% |
| COC(=O)[C@H]1Cc2c([nH]c3ccccc23)[C@H](c2ccc(N[C@]34CC5C[C@H](C[C@H](C5)C3)C4)cc2)N1C(=O)CCl [Compound 29] | < 0.01 µM | 100.0% | 61.9% | 51.1% | 100.0% | 67.3% | 49.2% |
| COC(=O)[C@H]1Cc2c([nH]c3ccccc23)[C@H](c2ccc(S(=O)(=O)N[C@]34C[C@H]5C[C@H](C[C@H](C5)C3)C4)cc2)N1C(=O)/C=C/CCl [Compound 30] | 0.5 to 1 µM | 100.0% | 85.3% | 75.9% | 100.0% | 62.1% | 38.1% |
| COC(=O)[C@H]1Cc2c([nH]c3ccccc23)[C@H](c2ccc(C(=O)N3CCNCC3)cc2)N1C(=O)CCl [Compound 31] | 0.1 to 0.5 µM | 100.0% | 90.0% | 75.5% | 100.0% | 49.4% | 32.6% |
| COC(=O)[C@H]1Cc2c([nH]c3ccccc23)[C@H](c2ccc(C(=O)N3CCC(O)CC3)cc2)N1C(=O)CCl [Compound 32] | > 1 µM | 100.0% | 0.0% | 0.0% | 100.0% | 0.1% | 0.1% |

Continued, values first:

| IC50 [1] | Whole Blood Stability % Remaining at 37° C. Mouse ([2]; 0 min) | Whole Blood Stability % Remaining at 37° C. Mouse ([2]; 30 min) | Whole Blood Stability % Remaining at 37° C. Mouse ([2]; 60 min) | Whole Blood Stability % Remaining at 37° C. Human ([3]; 0 min) | Whole Blood Stability % Remaining at 37° C. Human ([3]; 30 min) | Whole Blood Stability % Remaining at 37° C. Human ([3]; 60 min) | SMILES |
| --- | --- | --- | --- | --- | --- | --- | --- |
| 0.1 to 0.5 µM | 100.0% | 83.0% | 50.2% | 100.0% | 72.7% | 66.8% | COC(=O)[C@H]1Cc2c([nH]c3ccccc23)[C@H](c2ccc(C(=O)NCCN)cc2)N1C(=O)CCl [Compound 15] |
| < 0.01 µM | 100.0% | 84.1% | 63.3% | 100.0% | 54.3% | 36.9% | COC(=O)[C@H]1Cc2c([nH]c3ccccc23)[C@H](c2ccc(C(=O)NCCNC(=O)OC(C)(C)C)cc2)N1C(=O)CCl [Compound 16] |
| 0.01 to 0.1 µM | 100.0% | 14.0% | 3.2% | 100.0% | 49.7% | 24.3% | CN(C)C(=O)[C@H]1Cc2c([nH]c3ccccc23)[C@H](c2ccc(C(=O)OC(C)(C)C)cc2)N1C(=O)CCl [Compound 21] |
| < 0.01 µM | 100.0% | 55.5% | 34.4% | 100.0% | 48.9% | 30.8% | COC(=O)[C@H]1Cc2c([nH]c3ccccc23)[C@H](c2ccc(S(=O)(=O)N(C)C)cc2)N1C(=O)CCl [Compound 23] |
| 0.01 to 0.1 µM | 100.0% | 67.7% | 55.7% | 100.0% | 47.1% | 22.9% | COC(=O)[C@H]1Cc2c([nH]c3ccccc23)[C@H](c2ccc(C(=O)N3CCOCC3)cc2)N1C(=O)CCl [Compound 26] |
| 0.01 to 0.1 µM | 100.0% | 78.2% | 73.2% | 100.0% | 63.9% | 48.3% | COC(=O)[C@H]1Cc2c([nH]c3ccccc23)[C@H](c2ccc(C(=O)NCCN3CCOCC3)cc2)N1C(=O)CCl [Compound 27] |
